Laboratory results taken from ChEMBL document CHEMBL5338739, “Discovery of Dual Lysine Methyltransferase G9a and EZH2 Inhibitors with In Vivo Efficacy against Malignant Rhabdoid Tumor” (J Med Chem, 2023).
Calls of active or inactive are those of the source. The calls are words filed in the database; no cut-off is given here.

Key:
[1] = Apparent volume of distribution in Sprague-Dawley rat at 10 mg/kg, iv administered for 12 hrs by HPLC analysis; format: ADME, organism-based; settings: in vivo, read-out: Vc
RD [2] = assay: Downregulation of H3K4me2 expression in human RD cells at 5 uM incubated for 6 days by immunoblotting analysis; format: functional, cell-based; settings: time 6.0 day
[3] = AUC (0 to infinity) in Sprague-Dawley rat at 10 mg/kg, iv administered for 12 hrs by HPLC analysis; format: ADME, organism-based; parameters: time 12 hrs, dose 10 mg/kg, route iv; settings: in vivo
[4] = Clearance in Sprague-Dawley rat at 30 mg/kg, po administered for 24 hrs by HPLC analysis; format: ADME, organism-based; settings: in vivo
RD [5] = assay: Downregulation of H3K9me2 expression in human RD cells at 5 uM incubated for 6 days by Western blotting analysis; format: functional, cell-based; settings: time 6.0 day
[6] = Tmax in Sprague-Dawley rat at 30 mg/kg, po administered for 24 hrs by HPLC analysis; format: ADME, organism-based; settings: in vivo
[7] = AUC (0 to infinity) in Sprague-Dawley rat at 30 mg/kg, po administered for 24 hrs by HPLC analysis; format: ADME, organism-based; parameters: time 24 hrs, dose 30 mg/kg, route po; settings: in vivo
Mus musculus = assay: Downregulation of H3K9me2 expression in tumor tissue of BALB/c nude mouse xenografted with human RD cells at 20 mg/kg, ip administered for 5 consecutive days followed by 2 rest days for 3 weeks by Western blotting analysis; format: functional, organism-based
[8] = target: T1, N-lysine methyltransferase KMT5A (Homo sapiens) (UniProt Q9NQR1); assay: Inhibition of SETD8 (unknown origin) using SAM as substrate at 10 uM by time-resolved fluorescence assay relative to control
T1 sequence (whole entry): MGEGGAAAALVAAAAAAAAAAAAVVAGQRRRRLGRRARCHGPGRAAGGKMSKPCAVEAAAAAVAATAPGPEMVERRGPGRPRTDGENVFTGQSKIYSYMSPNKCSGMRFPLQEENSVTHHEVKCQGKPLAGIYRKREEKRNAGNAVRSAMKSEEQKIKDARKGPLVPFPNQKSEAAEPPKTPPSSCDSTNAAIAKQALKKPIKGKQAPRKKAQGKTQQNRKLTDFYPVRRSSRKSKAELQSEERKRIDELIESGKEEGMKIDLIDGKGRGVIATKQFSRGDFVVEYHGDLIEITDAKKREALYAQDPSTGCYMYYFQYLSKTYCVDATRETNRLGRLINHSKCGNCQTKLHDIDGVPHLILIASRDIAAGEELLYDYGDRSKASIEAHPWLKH

RD [9] = assay: Antitumor activity against human RD-EV cells xenografted in BALB/c nude mouse assessed as tumor growth inhibition at 20 mg/kg, ip administered for 15 days; format: functional; settings: 360 h, time 15 day, read-out: TGI
[10] = target: T2, Histone-lysine N-methyltransferase EHMT2 (Homo sapiens) (UniProt Q96KQ7); assay: Binding affinity to recombinant EHMT2 G9a in human RD cells assessed as increase in protein thermal stability at 5 uM incubated for 4 hrs by CETSA based Western blot analysis; format: cell-based
T2 sequence (whole entry): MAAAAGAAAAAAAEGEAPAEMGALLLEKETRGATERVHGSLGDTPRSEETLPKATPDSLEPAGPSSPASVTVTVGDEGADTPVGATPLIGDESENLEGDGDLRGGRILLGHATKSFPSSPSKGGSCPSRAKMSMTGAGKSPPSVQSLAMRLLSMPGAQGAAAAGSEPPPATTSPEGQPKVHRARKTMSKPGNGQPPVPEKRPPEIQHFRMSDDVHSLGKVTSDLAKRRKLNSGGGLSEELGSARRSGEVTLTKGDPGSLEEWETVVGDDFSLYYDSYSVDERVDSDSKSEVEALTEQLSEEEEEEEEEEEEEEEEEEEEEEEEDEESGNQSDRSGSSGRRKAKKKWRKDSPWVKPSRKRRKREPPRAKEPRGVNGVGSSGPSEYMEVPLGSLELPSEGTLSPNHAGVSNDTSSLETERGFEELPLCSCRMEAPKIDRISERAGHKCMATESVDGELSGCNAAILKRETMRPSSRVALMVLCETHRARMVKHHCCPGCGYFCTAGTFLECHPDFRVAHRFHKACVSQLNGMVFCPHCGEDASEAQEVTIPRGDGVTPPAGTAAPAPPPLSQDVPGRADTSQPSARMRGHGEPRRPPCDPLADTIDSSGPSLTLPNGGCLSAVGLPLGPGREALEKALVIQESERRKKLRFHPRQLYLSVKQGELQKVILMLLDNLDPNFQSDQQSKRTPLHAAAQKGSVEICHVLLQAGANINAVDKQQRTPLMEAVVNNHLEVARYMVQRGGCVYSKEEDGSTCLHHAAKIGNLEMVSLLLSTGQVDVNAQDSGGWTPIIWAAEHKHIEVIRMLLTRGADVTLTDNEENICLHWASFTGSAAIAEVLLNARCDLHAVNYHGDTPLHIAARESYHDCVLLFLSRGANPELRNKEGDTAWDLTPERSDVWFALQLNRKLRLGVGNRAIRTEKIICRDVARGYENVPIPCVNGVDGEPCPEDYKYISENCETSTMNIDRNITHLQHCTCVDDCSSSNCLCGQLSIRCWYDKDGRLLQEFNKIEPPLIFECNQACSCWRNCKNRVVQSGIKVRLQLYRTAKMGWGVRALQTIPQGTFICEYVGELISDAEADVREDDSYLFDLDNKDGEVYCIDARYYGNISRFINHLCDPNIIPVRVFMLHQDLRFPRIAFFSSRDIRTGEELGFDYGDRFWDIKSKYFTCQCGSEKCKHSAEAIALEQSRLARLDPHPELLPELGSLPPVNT

RD [11] = assay: Downregulation of H3K4me1 expression in human RD cells at 5 uM incubated for 6 days by immunoblotting analysis; format: functional, cell-based; settings: time 6.0 day
[12] = Half life in Sprague-Dawley rat at 30 mg/kg, po administered for 24 hrs by HPLC analysis; format: ADME, organism-based; settings: in vivo
[13] = Cmax in Sprague-Dawley rat at 30 mg/kg, po administered for 24 hrs by HPLC analysis; format: ADME, organism-based; parameters: time 24 hrs, dose 30 mg/kg, route po; settings: in vivo
[14] = Oral bioavailability in Sprague-Dawley rat at 30 mg/kg administered for 24 hrs by HPLC analysis; format: ADME, organism-based; settings: in vivo
[15] = target: Histone-lysine N-methyltransferase SETDB1 (Homo sapiens) (UniProt Q15047); assay: Inhibition of SETDB1 (unknown origin) using SAM as substrate at 10 uM by time-resolved fluorescence assay relative to control
[16] = Cmax in Sprague-Dawley rat at 10 mg/kg, iv administered for 12 hrs by HPLC analysis; format: ADME, organism-based; parameters: dose 10 mg/kg, time 12 hrs, route iv; settings: in vivo
[17] = Half life in Sprague-Dawley rat at 10 mg/kg, iv administered for 12 hrs by HPLC analysis; format: ADME, organism-based; settings: in vivo
RD [18] = assay: Antitumor activity against human RD cells xenografted in BALB/c nude mouse assessed as suppression of tumor growth administered intraperitoneally for 5 consecutive days followed by 2 rest days for 3 weeks; settings: dose 10-20 mg/kg, route ip
RD [19] = assay: Downregulation of H3K27me3 expression in human RD cells at 5 uM incubated for 6 days by Western blotting analysis; format: functional, cell-based; settings: time 6.0 day
[20] = Toxicity in BALB/c nude mouse xenografted with human RD cells assessed as effect on liver viscera index at 10 to 20 mg/kg, ip administered for 5 consecutive days followed by 2 rest days for 3 weeks; format: organism-based; settings: in vivo, 504 h, dose 10-20 mg/kg

For `COc1cc2c(NCc3c(C)cc(C)[nH]c3=O)nc(N3CCC(F)(F)CC3)nc2cc1OCCCN1CCCC1`, which Vd [1] is on record?
The Vd was 4.54 L/kg.

And the Activity (RD [2])?
The Activity was “inactive”.

And the AUC [3]?
Its AUC is 2476.02 ng·h/mL.

What about the CL/F [4] of the same compound?
The CL/F was 59.7 mL/min/kg.

What about the Activity (RD [5]) of the same compound?
The Activity was “Active”.

And the Tmax [6]?
Its Tmax is 0.69 h.

And the AUC(0-inf) [7]?
Its AUC(0-inf) is 11400 ng·h/mL.

What about the Activity (Mus musculus) of the same compound?
Its Activity is “Active”.

What about the inhibition [8] of the same compound?
Its inhibition is 11.2%.

And the inhibition in vivo at 20 mg/kg (RD [9])?
The inhibition in vivo at 20 mg/kg was 55.4%.

And the Activity [10]?
The Activity was “Active”.

And the Activity (RD [11])?
Its Activity is “inactive”.

What about the half-life [12] of the same compound?
Its half-life is 4.02 h.

And the Cmax [13]?
The Cmax was 3180 ng/mL.

And the bioavailability [14]?
The bioavailability was 92%.

And the inhibition [15]?
The inhibition was 7.79%.

What about the Cmax [16] of the same compound?
Its Cmax is 1380 ng/mL.

What about the half-life [17] of the same compound?
Its half-life is 3.47 h.

And the Activity (RD [18])?
Its Activity is “Dose-Dependent Effect”.

And the Activity (RD [19])?
The Activity was “Active”.

What about the Activity [20] of the same compound?
The Activity was “Non-Toxic”.
